Key:
Type in all cases: cell-based
[1] = target: T1, human trace amine-associated receptor 1 (hTAAR1, hTA1) (Homo sapiens, UniProt Q96RJ0); test: GloSensor cAMP accumulation, hTA1-transfected HEK293T cells
T1 sequence (Q96RJ0 1-339): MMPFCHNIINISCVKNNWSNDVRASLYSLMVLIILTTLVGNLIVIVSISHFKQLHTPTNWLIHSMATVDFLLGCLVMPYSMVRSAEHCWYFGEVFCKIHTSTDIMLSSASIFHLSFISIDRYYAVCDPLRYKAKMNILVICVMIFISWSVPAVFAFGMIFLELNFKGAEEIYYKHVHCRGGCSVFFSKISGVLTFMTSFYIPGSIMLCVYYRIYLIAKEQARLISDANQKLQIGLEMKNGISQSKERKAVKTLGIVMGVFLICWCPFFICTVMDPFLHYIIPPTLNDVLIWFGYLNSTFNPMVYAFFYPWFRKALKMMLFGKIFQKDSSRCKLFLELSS

[2] = target: T1, human trace amine-associated receptor 1 (hTAAR1, hTA1); test: cryo-EM structure of the hTA1-Gs complex
[3] = target: T1, human trace amine-associated receptor 1 (hTAAR1, hTA1); test: GloSensor cAMP accumulation, hTA1-transfected HEK293T cells, with pocket mutants

SMILES	EC50 [1]	other results
NCCc1ccc(O)cc1 [tyramine]	6.38 ± 0.04 pEC50	
CC[C@@H](C[C@H]1COC(N)=N1)c1ccccc1 [Ro5256390]		EC50 [2]: ~5 nM
CN1CC2c3ccccc3Oc3ccc(Cl)cc3C2C1 (stereo not shown) [asenapine]		EC50 [3]: 6.56 ± 0.01 pEC50
Cc1c(F)cccc1[C@H]1COC(N)=N1 [Ro5263397]	1.48 nM	

— publication PMC10659437 (bioRxiv, 2023)
